Measurements from patent publication US12258338B2, “Modulators of the integrated stress response pathway” (EVOTEC INTERNATIONAL GMBH, priority 2019, dated 2025).

Experiments:
[1] = molecular target: T1, human ERG potassium channel (hERG) (Homo sapiens, UniProt Q12809); experiment: hERG channel tail current recording using in vitro Rapid ICE (automated patch-clamp, QPatch HTX); type: cell-based; conditions: Table 26
T1 construct: expressed in transfected cells; host or cells: HEK293, stably transfected, tetracycline-inducible promoter
Description: Protocol—Measure of the Effect on hERG Channel by Tail Current Recording Using In Vitro Rapid ICE
The potency of the example compounds in inhibiting human ERG potassium channel (hERG) tail current was assessed in a recombinant HEK293 cell line stably transfected with hERG cDNA under an inducible promoter, using Rapid ICE (rapid ion channel electrophysiology) assay. Rapid ICE is an automated patch-clamp assay utilizing the QPatch HTX system (Sophion Bioscience A/S). Briefly, inducible HEK hERG cells were cultivated in minimum essential medium supplemented with 10% FBS, 1% non-essential amino acids, 1% sodium pyruvate, 2 mM 1-glutamine, 15 μg/mL blasticidin, and 100 μg/mL hygromycin. hERG channel expression induction was obtained by adding 10 μg/mL tetracycline for 24, 48, or 72 h before recordings.
On the day of the experiment, cells were detached with TrypLE and prepared to be loaded on the instrument. Cells were resuspended in 7 mL of Serum-Free Media containing 25 mM Hepes and soybean trypsin inhibitor and immediately placed in the cell storage tank of the machine. The composition of the extracellular buffer was (mM): NaCl 137, KCl 4, CaCl2 1.8, MgCl2 1.0, d-glucose 10, N-2-hydroxyethylpiperazine-N′-2-ethanesulfonic acid (HEPES) 10, pH 7.4 with 1 M NaOH. The composition of the intracellular solution was (mM): KCl 130, MgCl2 1.0, ethylene glycol-bis(β-aminoethyl ether)-N,N,N′,N′-tetraacetic acid (EGTA) 5, MgATP 5, HEPES 10, pH 7.2 with 1 M KOH. The voltage protocol included the following steps: step from −80 to −50 mV for 200 ms, +20 mV for 4.8 s, step to −50 mV for 5 s, then step to the holding potential of −80 mV. Compounds were dissolved in DMSO and diluted in extracellular buffer to achieve final test concentrations (0.3, 3, and 30 μM) in 0.3% DMSO. The voltage protocol was run and recorded continuously during the experiment. The vehicle, corresponding to 0.3% DMSO in extracellular buffer was then applied for 3 min, followed by the test substance in triplicate. The standard combined exposure time was 5 min. The average of tail current amplitude values recorded from four sequential voltage pulses was used to calculate for each cell the effect of the test substance by calculating the residual current (% control) compared with vehicle pretreatment. Data were reported as % inhibition for each concentration tested, and IC50 values were estimated using QPatch software. At least two cells were tested, and even more if results diverged.

ATF4 = experiment: HEK-ATF4 High Content Imaging assay (prevention of Tunicamycin induced ISR; ATF4 signal ratio between nucleus and cytoplasm); type: cell-based; conditions: Homo sapiens; Wild-type HEK293 cells, Tunicamycin induced ISR, 6 h; read-out: IIEK-ATF4 Activity
How it was run: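 Wild-type HEK293 cells in 0.3% FBS medium were co-treated with compounds and Tunicamycin (3.3 μM in prediluted medium, 11-fold over final) for 6 h at 37 °C. Fixed cells were immunostained for ATF4 with Hoechst nuclei; imaging gave nuclear/cytoplasmic ATF4 ratio, with nuclei counts as toxicity control.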

T1 sequence (Q12809 whole entry): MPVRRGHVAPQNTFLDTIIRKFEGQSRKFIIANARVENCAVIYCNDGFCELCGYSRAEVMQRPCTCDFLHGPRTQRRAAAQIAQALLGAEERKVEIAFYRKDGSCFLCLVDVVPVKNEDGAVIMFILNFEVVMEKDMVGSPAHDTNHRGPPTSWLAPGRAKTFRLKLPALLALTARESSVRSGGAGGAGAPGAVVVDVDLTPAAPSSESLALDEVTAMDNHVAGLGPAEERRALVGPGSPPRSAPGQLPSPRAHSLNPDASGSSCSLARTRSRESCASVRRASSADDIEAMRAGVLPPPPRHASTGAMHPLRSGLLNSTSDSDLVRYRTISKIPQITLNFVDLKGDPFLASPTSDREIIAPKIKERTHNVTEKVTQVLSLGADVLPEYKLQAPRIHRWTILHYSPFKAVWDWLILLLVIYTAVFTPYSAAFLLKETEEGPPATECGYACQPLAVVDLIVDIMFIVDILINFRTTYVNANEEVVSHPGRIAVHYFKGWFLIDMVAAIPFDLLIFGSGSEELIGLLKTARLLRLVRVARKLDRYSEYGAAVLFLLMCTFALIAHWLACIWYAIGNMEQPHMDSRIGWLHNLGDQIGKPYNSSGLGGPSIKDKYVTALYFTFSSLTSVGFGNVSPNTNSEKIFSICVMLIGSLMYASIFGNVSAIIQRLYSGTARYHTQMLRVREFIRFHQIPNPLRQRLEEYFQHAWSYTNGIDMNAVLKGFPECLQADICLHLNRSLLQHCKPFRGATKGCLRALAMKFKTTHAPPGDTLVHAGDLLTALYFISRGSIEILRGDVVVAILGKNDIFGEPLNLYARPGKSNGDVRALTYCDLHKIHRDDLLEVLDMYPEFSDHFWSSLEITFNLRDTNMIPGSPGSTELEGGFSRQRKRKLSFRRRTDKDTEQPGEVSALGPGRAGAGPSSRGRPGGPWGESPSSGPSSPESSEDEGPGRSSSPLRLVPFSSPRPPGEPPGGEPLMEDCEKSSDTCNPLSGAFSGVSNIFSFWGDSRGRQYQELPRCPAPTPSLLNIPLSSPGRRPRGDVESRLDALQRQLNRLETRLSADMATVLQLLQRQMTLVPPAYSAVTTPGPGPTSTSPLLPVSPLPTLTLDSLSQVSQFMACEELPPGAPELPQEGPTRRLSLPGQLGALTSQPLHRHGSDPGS

Row | IC50 (ATF4) | SMILES | IC50 [1]
1 | 1 to 500 nM | O=C(COc1ccc(Cl)c(F)c1)N[C@H]1CC[C@H](c2nnc(OCCO[C@H]3CC3(F)F)o2)NC1 (single isomer, unassigned) [Example 103] | > 5000 nM
2 | 500 to 2000 nM | CCOCCOc1nnc([C@H]2CC[C@H](NC(=O)COc3ccc(Cl)c(F)c3)CN2)o1 [Example 81, 2-(4-chloro-3-fluorophenoxy)-N-[(3S,6R)-6-[5-(2-ethoxyethoxy)-1,3,4-oxadiazol-2-yl]piperidin-3-yl]acctamide] | > 5000 nM
3 | 1 to 500 nM | O=C(COc1ccc(Cl)c(F)c1)N[C@@H]1CC[C@@H](c2nnc(-c3ccc(Cl)cc3)o2)NC1 [Example 35, 2-(4-chloro-3-fluorophenoxy)-N-[(3R,6S)-6-[5-(4-chlorophenyl)-1,3,4-oxadiazol-2-yl]piperidin-3-yl]acetamide] | 1 to 1000 nM
4 | 1 to 500 nM | CCN1C[C@@H](NC(=O)COc2ccc(Cl)c(F)c2)CC[C@@H]1c1nnc(-c2ccc(Cl)cc2)o1 [Example 46, 2-(4-chloro-3-fluorophenoxy)-N-[(3S,6R)-6-[5-(4-chlorophenyl)-1,3,4-oxadiazol-2-yl]-1-ethylpiperidin-3-yl]acetamide] | 1 to 1000 nM
5 | 1 to 500 nM | CN1C[C@H](NC(=O)COc2ccc(Cl)c(F)c2)CC[C@H]1c1nnc(-c2ccc(Cl)cc2)o1 [Example 44, 2-(4-chloro-3-fluorophenoxy)-N-[(3R,6S)-6-[5-(4-chlorophenyl)-1,3,4-oxadiazol-2-yl]-1-methylpiperidin-3-yl]acetamide] | 1 to 1000 nM
6 | 1 to 500 nM | CN1C[C@@H](NC(=O)COc2ccc(Cl)c(F)c2)CC[C@@H]1c1nnc(OCCOC(F)(F)F)o1 [Example 101, 2-(4-chloro-3-fluorophenoxy)-N-[(3S,6R)-1-methyl-6-{5-[2-(trifluoromethoxy)ethoxy]-1,3,4-oxadiazol-2-yl}piperidin-3-yl]acetamide] | > 5000 nM
7 | 1 to 500 nM | O=C(COc1ccc(Cl)c(F)c1)N[C@@H]1CC[C@@H](c2nnc(N3CC(OC(F)(F)F)C3)o2)NC1 [Example 43] | > 5000 nM

The remaining lines, values behind:

Row | SMILES | IC50 (ATF4) | IC50 [1]
8 | O=C(COc1ccc(Cl)c(F)c1)N[C@H]1CC[C@H](c2nnc(-c3ccc(Cl)cn3)o2)NC1 [Example 53, 2-(4-chloro-3-fluorophenoxy)-N-[(3S,6R)-6-[5-(5-chloropyridin-2-yl)-1,3,4-oxadiazol-2-yl]piperidin-3-yl]acetamide] | 1 to 500 nM | 1000 to 5000 nM
9 | O=C(COc1ccc(Cl)c(F)c1)N[C@@H]1CC[C@@H](c2nnc(-c3ccc(Cl)cc3)o2)NC1=O (single isomer, unassigned) [Example 109] | 1 to 500 nM | 1 to 1000 nM
10 | O=C(COc1ccc(Cl)c(Cl)c1)N[C@H]1CC[C@H](c2nnc([C@H]3C[C@@H](OC(F)(F)F)C3)o2)NC1 [Example 9, 2-(3,4-dichlorophenoxy)-N-[(3S,6R)-6-{5-[(1s,3s)-3-(trifluoromethoxy)cyclobutyl]-1,3,4-oxadiazol-2-yl}piperidin-3-yl]acetamide] | 1 to 500 nM | 1000 to 5000 nM
11 | C[C@@H](Oc1ccc(Cl)cc1)C(=O)N[C@H]1CC[C@H](c2nnc(-c3ccc(C(F)(F)F)cc3)o2)NC1 (single isomer, unassigned) [Example 106] | 2000 to 15000 nM | 1000 to 5000 nM
12 | O=C(COc1ccc(Cl)c(F)c1)N[C@H]1CC[C@H](c2nnc(OCCC(F)(F)F)o2)NC1 [Example 33, 2-(4-chloro-3-fluorophenoxy)-N-[(3S,6R)-6-[5-(3,3,3-trifluoropropoxy)-1,3,4-oxadiazol-2-yl]piperidin-3-yl]acetamide] | 1 to 500 nM | 1000 to 5000 nM
13 | O=C(COc1ccc(Cl)c(F)c1)N[C@H]1CC[C@H](c2nnc(OCCC3CC3)o2)NC1 [Example 69, 2-(4-chloro-3-fluorophenoxy)-N-[(3S,6R)-6-[5-(2-cyclopropylethoxy)-1,3,4-oxadiazol-2-yl]piperidin-3-yl]acetamide] | 1 to 500 nM | 1 to 1000 nM
14 | O=C(COc1ccc(Cl)c(F)c1)N[C@H]1CC[C@H](c2nnc(CCCOC(F)(F)F)o2)NC1 [Example 55, 2-(4-chloro-3-fluorophenoxy)-N-[(3S,6R)-6-{5-[3-(trifluoromethoxy)propyl]-1,3,4-oxadiazol-2-yl}piperidin-3-yl]acetamide] | 1 to 500 nM | > 5000 nM
15 | CCCCCOc1nnc([C@H]2CC[C@H](NC(=O)COc3ccc(Cl)c(F)c3)CN2)o1 [Example 78, 2-(4-chloro-3-fluorophenoxy)-N-[(3S,6R)-6-[5-(pentyloxy)-1,3,4-oxadiazol-2-yl]piperidin-3-yl]acetamide] | 1 to 500 nM | 1000 to 5000 nM
16 | COCCCOc1nnc([C@H]2CC[C@H](NC(=O)COc3ccc(Cl)c(F)c3)CN2)o1 [Example 79, 2-(4-chloro-3-fluorophenoxy)-N-[(3S,6R)-6-[5-(3-methoxypropoxy)-1,3,4-oxadiazol-2-yl]piperidin-3-yl]acetamide] | 2000 to 15000 nM | > 5000 nM
17 | O=C(COc1ccc(C(F)(F)F)c(Cl)c1)N[C@H]1CC[C@H](c2nnc([C@H]3C[C@@H](OC(F)(F)F)C3)o2)NC1 [Example 10, 2-[3-chloro-4-(trifluoromethyl)phenoxy]-N-[(3S,6R)-6-{5-[(1s,3s)-3-(trifluoromethoxy)cyclobutyl]-1,3,4-oxadiazol-2-yl}piperidin-3-yl]acetamide] | 1 to 500 nM | 1000 to 5000 nM
18 | O=C(COc1ccc(Cl)c(F)c1)N[C@@H]1CC[C@@H](c2nnc(OCCOC(F)(F)F)o2)NC1 [Example 83, 2-(4-chloro-3-fluorophenoxy)-N-[(3R,6S)-6-{5-[2-(trifluoromethoxy)ethoxy]-1,3,4-oxadiazol-2-yl}piperidin-3-yl]acetamide] | 1 to 500 nM | > 5000 nM
19 | N#Cc1cc(OCC(=O)N[C@H]2CC[C@H](c3nnc(OCCOC(F)(F)F)o3)NC2)ccc1Cl [Example 29, 2-(4-chloro-3-cyanophenoxy)-N-[(3S,6R)-6-{5-[2-(trifluoromethoxy)ethoxy]-1,3,4-oxadiazol-2-yl}piperidin-3-yl]acetamide] | 500 to 2000 nM | > 5000 nM
20 | O=C(COc1ccc(Cl)c(F)c1)N[C@H]1CC[C@H](c2nnc(OCCO[C@@H]3CC3(F)F)o2)NC1 (single isomer, unassigned) [Example 102] | 500 to 2000 nM | 1000 to 5000 nM
21 | CC1(OC(F)(F)F)CN(c2nnc([C@H]3CC[C@H](NC(=O)COc4ccc(Cl)c(F)c4)CN3)o2)C1 [Example 93, 2-(4-chloro-3-fluorophenoxy)-N-[(3S,6R)-6-{5-[3-methyl-3-(trifluoromethoxy)azetidin-1-yl]-1,3,4-oxadiazol-2-yl}piperidin-3-yl]acetamide] | 500 to 2000 nM | > 5000 nM
